From article PMC5699210 (Bioorganic & medicinal chemistry letters, 2011)
Entries after “also recorded” stand apart in the source; their conditions may differ.

System: rats with inflammation of the dura
Experiment: Rat model of migraine pain
Assay type: in vivo
Settings: oral 30 mg/kg

CN1CCC[C@@H]1CCn1ccc2ccc(NC(=N)c3cccs3)cc21.Cl.Cl [(R)-8]
tactile hyperesthesia (allodynia) of the hindpaw (15 min prior to the inflammatory soup, 30 mg/kg): attenuated the development of allodynia between 2 and 6 h post-dose; also recorded: attenuates the tactile hyperesthesia (allodynia); also recorded: reduce tactile hyperesthesia (allodynia) | time of maximum effect on allodynia (post-dose): 4 h
